Like-named read-outs stand apart in the source and are kept apart here.
How the values were obtained:
Type in all cases: cell-based
[1] = biological target: OR28/OR7 (Anopheles gambiae, UniProt A0A1S4GFY3+Q7QCC7); assay: Ca2+-imaging of stable HEK293T cell line OR28/OR7; details: for inhibition at 4 µM: HEK-293T, read-out: Percent Inhibition OR28 OR7
Procedure: (§1) Full-length cDNAs for mosquito (Anopheles gambiae) odorant receptor (OR1, OR2, OR7, OR8, OR28), and fly (Drosophila melanogaster) odorant receptor (Or47a, Or83b), mouse TRP channel (TRPM8), and mouse serotonin receptor (5HT3) were obtained and subcloned into mammalian expression vectors. The following mammalian expression vectors were used:
(§2) Stable cell lines OR1/OR7, OR2/OR7, OR8/OR7, OR10/OR7, OR28/OR7 and TRPM8 were generated from HEK293T cells. HEK293T-based cell lines were cultured in DMEM supplemented with these additional antibiotics: 6 μg/mL blasticidin and 1 μg/mL puromycin, with the exception of the TRPM8 cell lines, which was cultured in DMEM supplemented with 1 μg/mL puromycin.
(§3) Cells were trypsinized and split into 35 mm dishes one day before transfection. Confluent cells (60-70%) in 35 mm dishes were transfected with 1 μg of insect OR(X) plasmids in pME18s-bla and 1 μg of OR7-pME18s-puro using lipofectamine 2000. For Anopheles odorant receptors, two plasmids were co-transfected into HEK cells: the ligand-specific receptor (OR1, OR2, OR8, OR28) and the corresponding olfactory co-receptor: OR7. Cell lines containing TRPM8 were transfected with single plasmid.
(§4) Stable cell lines were cultured in 10 cm dishes, and confluent cells (70-80%) were trypsinized. 10,000 cells/20 μL were transferred into each well of 384-well plates coated with poly-D-lysine, and cultured for 2 days. For Flip-In T-Rex cells (cell lines expressing Or47a/Or83b and 5HT3), 5 μL of tetracycline (5 μg/mL) were added 1 day before the assay. 20 μL of Ca-4 dye was loaded into each well for 1.5 hr at room temperature in the dark, and the dye-loaded plates were subjected to Ca^2+-imaging using a Hamamatsu FDSS6000 real time fluorescence plate reader. Odorant solutions (9× final concentration) were prepared by dissolving 1M stock solutions into Hank's Buffered Salt Solution (HBSS), and 30 μL of odor solution was transferred to each well in 384-well plates.
(§5) Compounds ([…] in DMSO) were stored in 384-well plates, and last two columns (32 wells total) contained only DMSO. 200 nL of small compounds were transferred into the odorant plates before the assay using the Perkin-Elmer Janus workstation. The odorant plates were spun down to remove air bubbles, and placed on the FDSS6000 plate loader, and 5 μL of odorant solution was applied to the cell plate on the FDSS6000. Ca^2+ increase was monitored with fluorescence at 525 nm by excitation at 485 nm.

[2] = biological target: T1, Or47a/Or83b (Drosophila melanogaster, UniProt P81921+Q9VNB5); assay: Ca2+-imaging of stable Flip-In T-Rex cell line Or47a/Or83b; details: for inhibition at 4 µM: read-out: Percent Inhibition OR47a OR83b
T1 construct: Full-length cDNAs for mosquito (Anopheles gambiae) odorant receptor (OR1, OR2, OR7, OR8, OR28), and fly (Drosophila melanogaster) odorant receptor (Or47a, Or83b); expressed in transfected cells
T1 sequence (P81921 1-385): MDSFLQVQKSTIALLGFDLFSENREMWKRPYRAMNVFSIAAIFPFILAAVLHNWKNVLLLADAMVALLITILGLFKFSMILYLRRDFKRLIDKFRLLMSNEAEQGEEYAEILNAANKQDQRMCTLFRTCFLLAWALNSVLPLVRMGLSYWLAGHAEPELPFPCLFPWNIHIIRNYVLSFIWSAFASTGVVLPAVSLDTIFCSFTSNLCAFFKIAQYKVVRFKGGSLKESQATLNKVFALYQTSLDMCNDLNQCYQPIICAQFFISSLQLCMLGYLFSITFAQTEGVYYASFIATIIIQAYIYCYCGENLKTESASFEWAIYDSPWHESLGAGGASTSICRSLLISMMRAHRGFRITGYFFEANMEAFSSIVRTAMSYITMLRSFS
T1 sequence (Q9VNB5 1-486): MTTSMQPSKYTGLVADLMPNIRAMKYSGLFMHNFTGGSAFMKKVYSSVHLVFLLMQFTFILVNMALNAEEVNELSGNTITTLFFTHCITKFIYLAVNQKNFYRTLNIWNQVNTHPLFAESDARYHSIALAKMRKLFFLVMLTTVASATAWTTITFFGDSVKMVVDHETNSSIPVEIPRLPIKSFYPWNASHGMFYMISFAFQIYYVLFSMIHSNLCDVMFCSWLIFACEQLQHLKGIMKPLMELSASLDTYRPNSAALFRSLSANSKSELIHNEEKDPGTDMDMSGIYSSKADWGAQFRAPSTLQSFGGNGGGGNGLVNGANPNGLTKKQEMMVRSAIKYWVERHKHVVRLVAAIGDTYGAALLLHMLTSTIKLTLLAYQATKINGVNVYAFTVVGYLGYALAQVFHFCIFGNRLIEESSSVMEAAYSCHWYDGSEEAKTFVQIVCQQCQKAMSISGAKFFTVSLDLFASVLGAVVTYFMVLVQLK
Procedure: as §1
Stable cell lines Or47a/Or83b and 5HT3 were generated from Flip-In T-Rex cells. Flip-In T-Rex-based cell lines were cultured in DMEM supplemented with these additional antibiotics: 6 μg/mL blasticidin and 100 μg/mL hygromycin.
Cells were trypsinized and split into 35 mm dishes 1 day before transfection. Confluent cells (60-70%) in 35 mm dishes were co-transfected with 1 μg of Or47a/Or83b plasmid in pcDNA5/FRT/TO/IRES plus the pOG44 plasmid or 1 μg of 5HT3 plasmid in pcDNA5/FRT/TO plus the pOG44 plasmid using lipofectamine 2000. Co-transfection of pOG44 and pcDNA5/FRT/TO/IRES or pcDNA5/FRT/TO allows expression of Flp recombinase and integration of the pcDNA5 plasmid into the genome via the FRT site. After one day of incubation, the transfected cells were transferred into 10 cm dishes with DMEM containing antibiotics: 20 μg/mL of hygromycin and 6 μg/mL of blasticidin. The concentration of Hygromycin was increased to 100 μg/mL when the population of cells became 30-40% confluent. The cells were cultured by changing medium every two days until cell clumps appeared. The clumps were picked and transferred into 96 well plates with DMEM containing 100 μg/mL of Hygromycin and 6 μg/mL of blasticidin. The cells were grown and transferred to 24 well plates, and ligand-evoked calcium increases were tested using the Hamamatsu FDSS6000 real time fluorescence plate reader.
as §4, §5

[3] = biological target: T2, TRP channel (TRPM8) (Mus musculus, UniProt Q8R4D5); assay: Ca2+-imaging of stable HEK293T cell line TRPM8; details: for inhibition at 4 µM: HEK-293T, read-out: Percent Inhibition TRPM8; for IC50: ligand menthol 300 μM, read-out: IC50 TRPM8
T2 construct: Full-length cDNAs for mosquito (Anopheles gambiae) odorant receptor (OR1, OR2, OR7, OR8, OR28), and fly (Drosophila melanogaster) odorant receptor (Or47a, Or83b), mouse TRP channel (TRPM8); expressed in transfected cells
T2 sequence (Q8R4D5 whole entry): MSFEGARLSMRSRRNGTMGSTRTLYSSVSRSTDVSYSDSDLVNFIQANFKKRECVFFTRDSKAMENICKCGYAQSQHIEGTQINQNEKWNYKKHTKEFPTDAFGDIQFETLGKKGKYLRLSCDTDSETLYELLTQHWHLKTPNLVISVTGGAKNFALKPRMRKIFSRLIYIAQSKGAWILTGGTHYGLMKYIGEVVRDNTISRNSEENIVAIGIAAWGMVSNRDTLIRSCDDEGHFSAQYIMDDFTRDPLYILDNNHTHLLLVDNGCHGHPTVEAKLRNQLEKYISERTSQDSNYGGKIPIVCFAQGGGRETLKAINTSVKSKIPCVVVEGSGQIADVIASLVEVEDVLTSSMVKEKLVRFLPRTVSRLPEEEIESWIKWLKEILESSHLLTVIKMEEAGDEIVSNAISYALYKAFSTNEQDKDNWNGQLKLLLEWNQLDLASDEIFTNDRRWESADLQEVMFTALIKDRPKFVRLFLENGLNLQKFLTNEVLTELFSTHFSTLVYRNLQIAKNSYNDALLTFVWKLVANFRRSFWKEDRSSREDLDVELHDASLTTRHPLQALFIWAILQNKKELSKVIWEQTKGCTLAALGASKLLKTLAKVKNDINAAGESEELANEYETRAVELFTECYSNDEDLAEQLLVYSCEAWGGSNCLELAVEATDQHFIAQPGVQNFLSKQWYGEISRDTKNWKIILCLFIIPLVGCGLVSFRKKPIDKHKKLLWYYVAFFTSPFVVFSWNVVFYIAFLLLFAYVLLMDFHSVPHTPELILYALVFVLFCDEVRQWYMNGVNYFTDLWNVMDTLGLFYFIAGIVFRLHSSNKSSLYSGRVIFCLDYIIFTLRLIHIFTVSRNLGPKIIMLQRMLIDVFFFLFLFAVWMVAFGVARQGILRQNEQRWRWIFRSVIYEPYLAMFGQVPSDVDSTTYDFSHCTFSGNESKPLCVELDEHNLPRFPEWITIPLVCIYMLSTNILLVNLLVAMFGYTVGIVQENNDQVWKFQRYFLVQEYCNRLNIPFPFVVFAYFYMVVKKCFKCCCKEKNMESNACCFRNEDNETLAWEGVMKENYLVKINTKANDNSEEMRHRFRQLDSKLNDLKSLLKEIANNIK
Procedure: as §1, §2, §3, §4, §5

[4] = ligand acetophenone 300 μM, read-out: IC50 OR28 OR7
[5] = ligand pentyl acetate 30 μM, read-out: IC50 OR47a OR83b

OR28/OR7, sequence (A0A1S4GFY3 entry or part of it): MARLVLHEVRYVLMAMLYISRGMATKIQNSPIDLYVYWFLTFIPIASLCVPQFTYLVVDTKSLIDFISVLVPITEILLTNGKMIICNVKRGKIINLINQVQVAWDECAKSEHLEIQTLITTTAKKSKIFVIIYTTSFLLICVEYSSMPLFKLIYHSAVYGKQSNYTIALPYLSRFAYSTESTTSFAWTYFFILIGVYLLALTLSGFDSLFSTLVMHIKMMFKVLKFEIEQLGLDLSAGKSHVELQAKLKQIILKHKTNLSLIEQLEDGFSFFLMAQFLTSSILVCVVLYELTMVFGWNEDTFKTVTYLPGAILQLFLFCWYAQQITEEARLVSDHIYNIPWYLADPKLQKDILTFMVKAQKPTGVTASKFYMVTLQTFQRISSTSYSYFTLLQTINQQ
OR28/OR7, sequence (Q7QCC7 whole entry): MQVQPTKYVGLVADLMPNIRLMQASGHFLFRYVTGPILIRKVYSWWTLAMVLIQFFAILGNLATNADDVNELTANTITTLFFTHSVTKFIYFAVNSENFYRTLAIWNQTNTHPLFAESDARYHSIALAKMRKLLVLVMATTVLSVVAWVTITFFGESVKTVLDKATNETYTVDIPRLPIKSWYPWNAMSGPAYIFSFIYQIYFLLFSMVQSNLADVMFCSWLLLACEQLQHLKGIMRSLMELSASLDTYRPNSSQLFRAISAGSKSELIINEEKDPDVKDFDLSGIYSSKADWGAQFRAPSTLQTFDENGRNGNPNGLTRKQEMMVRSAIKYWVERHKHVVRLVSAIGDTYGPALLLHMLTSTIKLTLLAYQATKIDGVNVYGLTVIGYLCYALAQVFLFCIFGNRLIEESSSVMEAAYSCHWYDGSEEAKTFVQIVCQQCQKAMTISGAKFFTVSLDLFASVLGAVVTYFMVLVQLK

| Compound | inhibition at 4 µM ([1]; compound applied at 4 μM) [%] | IC50 ([1]; Table B, read-out: IC50 OR28) [nM] | IC50 ([2]; Table B, read-out: IC50 OR47a) [nM] | inhibition at 4 µM ([2]; compound applied at 4 μM) [%] | inhibition at 4 µM ([3]; compound applied at 4 μM) [%] | other results |
| --- | --- | --- | --- | --- | --- | --- |
| C=CCNC(=O)C(NC(=O)c1cccc(C)c1)C1CCN(C(=O)c2cccc(Br)c2)CC1 (centres unmarked) [RU-0039123] | > 75 | < 100 | > 1000 | 51 to 74 | < 25 |  |
| COc1ccccc1CC(=O)N1CCOC(COc2ccc(C)cc2)C1 (centres unmarked) [RU-0050390] | > 75 | < 100 |  | 26 to 50 | < 25 |  |
| Cc1cc(N(C)C2CCCCC2)nc(SCc2cccc(C(=O)N3CCCC3)c2)n1 [RU-0034108] | 26 to 50 |  | > 1000 | 26 to 50 | < 25 |  |
| CN(Cc1nccn1Cc1c(F)cccc1Cl)C(=O)C1CCCC1 [RU-I5] |  |  |  |  |  | IC50 [1, 4]: 2000 to 20000 nM; IC50 [2, 5]: 20000 to 50000 nM; IC50 [3]: > 20000 nM |
| C=CCN(Cc1nccn1Cc1ccc(Cl)c(Cl)c1)C(=O)c1ccccc1F [RU-0047955] | > 75 | < 100 |  | 26 to 50 | < 25 |  |
| Fc1ccccc1/C=N/Nc1nc(N2CCCCC2)nc(N2CCOCC2)n1 [RU-0018338] | 51 to 74 | < 100 | < 100 | 51 to 74 | 26 to 50 |  |
| CCc1cc(N2CCCC2)nc(SCc2ccc(C(=O)N3CCOCC3)o2)n1 [RU-0047568] | > 75 | < 100 |  | 26 to 50 | 26 to 50 |  |
| COc1cccc(-c2nnc(SCCCC(=O)N3CCN(C(=O)CC(C)(C)C)C(C)C3)n2-c2ccc(C)cc2)c1 (centres unmarked) [RU-0071818] | > 75 | < 100 |  | 26 to 50 | < 25 |  |
| CSc1nc(NC(C)C)nc(NC(C)C)n1 [RU-T2] |  |  |  |  |  | IC50 [1]: 2000 to 20000 nM; IC50 [2, 5]: > 20000 nM; IC50 [3]: > 20000 nM |
| C=CCN(Cc1nccn1Cc1ccccc1C)C(=O)CC(C)C [RU-0058298] | > 75 | < 100 | > 1000 | 51 to 74 | 26 to 50 |  |
| O=C(CCC1CCN(C(=O)c2cccc(-n3cccn3)c2)CC1)Nc1ccccc1 [RU-0032465] | > 75 | < 100 | > 1000 | 51 to 74 | 26 to 50 |  |
| CC(C)CN(Cc1nccn1Cc1c(F)cccc1Cl)C(=O)c1ccc(F)cc1 [RU-0048054] | < 25 | < 100 |  | 26 to 50 | < 25 |  |
| CCOC(=O)CCC(=O)N(CCc1ccccc1)CC(=O)Nc1cc(C(C)(C)C)nn1-c1ccccc1C [RU-0072462] | > 75 | < 100 |  | 26 to 50 | < 25 |  |
| O=C(C1CCCC1)N(Cc1nccn1CCc1c(F)cccc1Cl)C1CC1 [RU-I2] |  |  |  |  |  | IC50 [1, 4]: 2000 to 20000 nM; IC50 [2, 5]: < 2000 nM; IC50 [3]: > 20000 nM |
| COCCCN(Cc1c(-c2ccccc2)noc1N1CCCC1)C(=O)c1ccc(F)cc1 [RU-0037386] | > 75 | < 100 | > 1000 | 51 to 74 | < 25 |  |
| CCN(CC)C(=O)Oc1ccc2c(ccn2Cc2cccc(C)c2)c1NC(=O)CCCCC(=O)OC [RU-0075445] |  |  |  |  |  | IC50 [1]: < 100 nM; inhibition at 4 µM [1]: > 75%; inhibition at 4 µM [2]: < 25%; inhibition at 4 µM [3]: < 25% |
| COc1ccccc1C(=O)C1CCCN(C(=O)c2cccc(N3CCOCC3)c2)C1 (centres unmarked) [RU-0029350] | > 75 | 100 to 1000 | < 100 | 51 to 74 | 26 to 50 |  |
| CCOC(=O)c1c(NC(C)=O)c(-c2ccc(OC)cc2)cn1Cc1ccccc1 [RU-0077733] | 51 to 74 | < 100 |  | 26 to 50 | < 25 |  |
| C=CCOc1cccc(C(=O)N2CCCC(C(=O)c3ccccc3OC)C2)c1 (centres unmarked) [RU-0029409] | > 75 | < 100 |  | 51 to 74 | 26 to 50 |  |
| O=C(C1CCC1)N(Cc1ccco1)Cc1nccn1Cc1ccccc1Cl [RU-0048066] | > 75 | < 100 |  | 26 to 50 | < 25 |  |

Source: US20130324522A1, “INSECT ODORANT RECEPTOR ANTAGONISTS” (THE ROCKEFELLER UNIVERSITY, priority 2010, published 2013)
